Laboratory results taken from BindingDB's records for doi:10.1021/acsmedchemlett.1c00437 (University of Pennsylvania, 2021).

Assays:
[1] = Inhibition of gp120 in HIV-1 pseudotyped with A-MLV envelop glycoprotein infected in dog Cf2Th-CD4/CCR5 cells assessed as inhibition of viral entry incubated for 30 mins prior to infection and further incubated for 48 to 72 hrs in presence of firefly D-luciferin free acid and ATP by single-round infection luciferase assay
[2] = Inhibition of gp120 in HIV-1 AD8 infected in dog Cf2Th-CD4/CCR5 cells assessed as inhibition of viral entry incubated for 30 mins prior to infection and further incubated for 48 to 72 hrs in presence of firefly D-luciferin free acid and ATP by single-round infection luciferase assay
[3] = Inhibition of gp120 in HIV-1 A4 infected in dog Cf2Th-CD4/CCR5 cells assessed as inhibition of viral entry incubated for 30 mins prior to infection and further incubated for 48 to 72 hrs in presence of firefly D-luciferin free acid and ATP by single-round infection luciferase assay
[4] = Inhibition of gp120 in HIV-1 191084 infected in dog Cf2Th-CD4/CCR5 cells assessed as inhibition of viral entry incubated for 30 mins prior to infection and further incubated for 48 to 72 hrs in presence of firefly D-luciferin free acid and ATP by single-round infection luciferase assay

SMILES	IC50 [1]	IC50 [2]	IC50 [3]	IC50 [4]
C=CCC[C@@H]1c2cc(CNC)ccc2[C@H](NC(=O)C(=O)Nc2ccc(Cl)c(F)c2)[C@H]1CNC(=N)N	> 300 µM	7.4 µM	–	–
CNCc1ccc2c(c1)[C@@H](CCC(O)CO)[C@H](CNC(=N)N)[C@H]2NC(=O)C(=O)Nc1ccc(Cl)c(F)c1 (some centres undefined)	> 300 µM	3.32 µM	98.9 µM	20.6 µM
[H]/N=C(/N)NC[C@H]1[C@H](CC[C@H](O)CO)c2cc(CNC)ccc2[C@@H]1NC(=O)C(=O)Nc1ccc(Cl)c(F)c1	> 300 µM	0.91 µM	–	–
[H]/N=C(/N)NC[C@H]1[C@H](CC[C@@H](O)CO)c2cc(CNC)ccc2[C@@H]1NC(=O)C(=O)Nc1ccc(Cl)c(F)c1	> 300 µM	1.6 µM	–	–
[H]/N=C(/N)NC[C@H]1Cc2cc(CNC)ccc2[C@@H]1NC(=O)C(=O)Nc1ccc(Cl)c(F)c1	–	–	200 µM	95.9 µM

Now from value to compound:

IC50 [1]	IC50 [2]	IC50 [3]	IC50 [4]	SMILES
> 300 µM	7.7 µM	–	–	CNCc1ccc2c(c1)[C@@H](CCCO)[C@H](CNC(=N)N)[C@H]2NC(=O)C(=O)Nc1ccc(Cl)c(F)c1
> 100 µM	3.35 µM	–	–	CNCc1ccc2c(c1)[C@@H](CCC(=O)CO)[C@H](CNC(=N)N)[C@H]2NC(=O)C(=O)Nc1ccc(Cl)c(F)c1
> 300 µM	2.05 µM	–	–	CNCc1ccc2c(c1)[C@H](NC(=O)C(=O)Nc1ccc(Cl)c(F)c1)[C@@H](CNC(=N)N)[C@@H]2CCCO
> 300 µM	0.96 µM	–	–	CNCc1ccc2c(c1)[C@H](NC(=O)C(=O)Nc1ccc(Cl)c(F)c1)[C@@H](CNC(=N)N)[C@@H]2CCC(O)CO (some centres undefined)
> 300 µM	2.22 µM	–	–	CNCc1ccc2c(c1)[C@H](NC(=O)C(=O)Nc1ccc(Cl)c(F)c1)[C@@H](CNC(=N)N)[C@@H]2CC[C@H](O)CO
> 100 µM	–	–	–	CCCC[C@@H]1c2cc(CNC)ccc2[C@H](NC(=O)C(=O)Nc2ccc(Cl)c(F)c2)[C@H]1CNC(=N)N
> 300 µM	–	–	–	C=CCC[C@@H]1c2ccc(CNC)cc2[C@H](NC(=O)C(=O)Nc2ccc(Cl)c(F)c2)[C@H]1CNC(=N)N
